Measurements: article PMC12502564, “Evaluation of LLM-generated peptide as foundation template for discovery of effective encrypted AMPs against clinical superbugs” (Microbiology Spectrum, 2025)
No end group written: not given here.

How the values were obtained:
CRAB 2210186 = assay type: cell-based, carbapenem-resistant Acinetobacter baumannii
Protocol: (§1) The MIC of all peptides was determined using the microdilution broth method in a 96-well plate. Peptides were dissolved in the DMSO with an initial concentration of 12,800 µg mL^−1. And cells of eight strains were separately suspended in the MHB at a density of approximately 10^5 CFU mL^−1. In the first column of the 96-well plate, 16 µL of peptide and 184 µL of MHB were added to each well to achieve a final concentration of 1,024 µg mL^−1. One-hundred microliters of MHB was added to each of the remaining wells. Then the first column of liquid was mixed well and diluted to the 12th column using the twofold dilution method. One-hundred microliters of prepared bacterial solution was added to all wells, and the 96-well plate was incubated at 37°C for 18–24 h. The MIC was defined as the concentration of the peptide in the well just preceding the first well showing visible turbidity. All experiments were performed in triplicate to ensure reliability.

HEK293 cells = assay type: cell-based
Protocol: Cytotoxicity of AMPs was determined using the Cell Counting Kit-8. HEK293 cells, bought from Procell (Wuhan, China), were inoculated in 96-well flat-bottom plates according to 5,000 cells/well in cell culture medium. After 24-h incubation at 37°C with 5% CO2 in atmosphere, medium was replaced with fresh medium and incubated with antimicrobial peptide solutions at various concentrations for 48 h. Cell viability was monitored by adding CCK-8 solution and measuring OD450 after 4 h. Zero-well and control-well were set during this experimental process. All experiments were performed with three independent replicates. The cell survival rate was calculated by the following formula, and the CC50 value of each AMPs was calculated by online tools: https://www.aatbio.com/tools/ic50-calculator. (2) Cell survival rate (%)=OD(AMP)− OD(zero)/OD(control)− OD(zero)×100%

CRAB [1] = assay: Biofilm formation inhibition assay (crystal violet); assay type: cell-based, carbapenem-resistant Acinetobacter baumannii; conditions: 1/2 × MIC, 24 h, OD570
Protocol: The crystal violet staining method ([66]) was used to determine the inhibitory activity of the compounds against the biofilm formation of CRAB. The steps were as follows: prepare a bacterial solution (10^6 CFU mL^−1), mix it with different final concentrations of the compound (1/2 × MIC, 1 × MIC, 2 × MIC, and 4 × MIC), and culture it for 24 h. After discarding the supernatant, wash with PBS, add anhydrous methanol to fix the biofilm, and then stain it with crystal violet for 60 min after drying. After washing, dissolve the biofilm with 33% glacial acetic acid, and measure OD570. Three parallel experiments were performed, and the biofilm formation inhibition rate was calculated by the following formula:
(3) Biofilm formation inhibition rate (%)=(1−OD(sample)− OD(blank)/OD(negative)− OD(blank))×100%

CRAB [2] = assay: Outer membrane permeability assay (NPN); assay type: cell-based, carbapenem-resistant Acinetobacter baumannii; conditions: 10^8 CFU mL^−1
Protocol: NPN binds phospholipids in the periplasmic space, so NPN assay was carried out to analyze the effect of AMPs on the outer membrane permeabilization of bacteria ([65]). After CRAB was grown to the exponential phase, bacteria cells were harvested and washed three times in washing buffer of 5 mM glucose and 5 mM HEPES (1:1, pH = 7.2) and then re-adjusted to 10^8 CFU mL^−1 in same buffer. Bacterial suspensions (150 µL/well) were loaded into black-walled, clear-bottom 96-well plates with lids. Following bacterial loading, 50 µL of 10 µM NPN was introduced into each well, with 30-min pre-incubation for CRAB. Post-incubation fluorescence signals were acquired using 350 nm excitation and 420 nm emission wavelengths. Compounds (10 µL) were then administered to achieve 1 × MIC/10 × MIC -equivalent final concentrations in the dye-loaded bacterial suspensions. Real-time fluorescence monitoring was performed with continuous acquisition during the first 10 min, followed by measurements at 10-min intervals. Negative controls received 10 µL sterile water in lieu of antimicrobial peptides while maintaining equivalent pre-incubation conditions. All experimental conditions were executed with three biological replicates.

CRAB [3] = assay: PI assay, cytoplasmic membrane integrity; assay type: cell-based, carbapenem-resistant Acinetobacter baumannii; conditions: 1 × MIC, 10^8 CFU mL^−1
Protocol: PI (which is known to stain nuclear chromatin upon cell membrane disruption) assay was carried out to evaluate the ability of AMPs to disrupt the cytoplasmic membrane integrity ([63]). After CRAB was grown to the exponential phase, bacteria cells were harvested and washed three times in washing buffer of 5 mM glucose and 5 mM HEPES (1:1, pH = 7.2) and then re-adjusted to 10^8 CFU mL^−1 in the same buffer. Bacterial suspensions (150 µL/well) were loaded into black-walled, clear-bottom 96-well plates with lids. Following bacterial loading, 50 µL of 10 µM PI was introduced into each well, with 30 min pre-incubation CRAB. Post-incubation fluorescence signals were acquired using 535 nm excitation and 617 nm emission wavelengths. Compounds (10 µL) were then administered to achieve 1 × MIC/10 × MIC-equivalent final concentrations in the dye-loaded bacterial suspensions. Real-time fluorescence monitoring was performed with continuous acquisition during the first 10 min, followed by measurements at 10-min intervals. Negative controls received 10 µL sterile water in lieu of antimicrobial peptides while maintaining equivalent pre-incubation conditions. All experimental conditions were executed with three biological replicates.

CRPA 2403282 = assay type: cell-based, carbapenem-resistant P. aeruginosa
Protocol: as §1

[4] = system: all eight bacterial strains; assay type: cell-based, gram-positive and gram-negative bacteria; conditions: judged from MICs on eight strains
Protocol: as §1

S. aureus ATCC25923 = assay type: cell-based, Staphylococcus aureus
Protocol: as §1

CRAB [5] = assay: MBC determination, MBC/MIC ratio; assay type: cell-based, carbapenem-resistant Acinetobacter baumannii; conditions: MBC/MIC ≤4 is considered bactericidal
Protocol: The MBC was determined using the microdilution broth method described above for MIC determination. After identifying the clear wells (no growth), 10 µL of the liquid from these wells was transferred and spread on a nutrient agar plate. The plate was incubated at 37°C for 18–24 h. […] The lowest concentration with no visible growth was considered the MBC.

Question: With WLKRILKWIGNKLKW [PL-15] as the sequence, how does the MIC (CRAB 2210186) read?
Answer: The MIC was 4 µg/mL.

Question: What about the “log2CC50 (50% cell viability)” value (HEK293 cells) of the same sequence?
Answer: The value was no less than 3.

Question: What about the biofilm formation inhibition (CRAB [1]) of the same sequence?
Answer: The biofilm formation inhibition was “moderate biofilm inhibition”.

Question: What about the “NPN fluorescence (outer membrane permeability)” value (CRAB [2]; 1 × MIC) of the same sequence?
Answer: Its value is “marginal increase in fluorescence intensity”.

Question: And the “NPN fluorescence (outer membrane permeability)” value (CRAB [2]; 10 × MIC)?
Answer: The value was “rapid and significant increase in fluorescence intensity”.

Question: And the “PI fluorescence (cytoplasmic membrane integrity)” value (CRAB [3])?
Answer: Its value is “stronger fluorescence signal compared to polymyxin B and control”.

Question: And the MIC (CRPA 2403282)?
Answer: The MIC was 64 µg/mL.

Question: And the antimicrobial spectrum [4]?
Answer: Its antimicrobial spectrum is “broad-spectrum antimicrobial properties”.

Question: And the MIC (S. aureus ATCC25923)?
Answer: Its MIC is “lower than 11 µg mL^−1”.

Question: What about the “bactericidal classification by MBC/MIC ratio” value (CRAB [5]) of the same sequence?
Answer: Its value is “bactericidal effects”.
